# Values quoted from earlier work as cited in US20090196940A1, “COMPOSITIONS AND METHODS FOR SUPPORTING HEAT SHOCK FUNCTION” (priority 2007, published 2009).
# Experiments:
# [1] = test system: heat shock proteins / HSF1; conditions: in vitro, treated cells
# HSP70 = conditions: mice, administration of schisandrin B
# [2] = test system: cultured mouse skeletal cells (HSP72)
molecule,measurement,setting,value
"C[C@@]12C[C@@]3(O)O[C@@H](O1)[C@]1(COC(=O)c4ccccc4)[C@H]3C[C@@]12O[C@@H]1O[C@H](CO)[C@@H](O)[C@H](O)[C@H]1O [paeoniflorin, Paeoniflorin]",levels of expression of heat shock proteins,[1],enhanced levels of expression of heat shock proteins
same,phosphorylation of HSF1,[1],resulted in phosphorylation of HSF1
"COc1cc2c(c(OC)c1OC)-c1c(cc3c(c1OC)OCO3)CC(C)C(C)C2 (stereo not drawn) [schisandrin B, Schisandrin B]",production of HSP70,HSP70,increase the production of HSP70
Geranylgeranylacetone,differentiation of myoblasts into myotubules,[2],facilitate the differentiation of myoblasts into myotubules
same,expression of HSP72,[2],up-regulated the expression of HSP72
same,muscular protein content,[2],increased muscular protein content in a dose-dependent manner
